Test: Aerobic stability of grass silage (PVC silos, method of Honig)
Parameters: species or system ryegrass
Procedure: Second cut ryegrass was harvested at PLNC. The grass was determined to have an approximate dry matter of 35%.
Inoculation: Individual strains were supplied as fresh grown overnight culture. Cultures were adjusted to a standard concentration of 5.0×10^7 CFU/mL and applied using a syringe at a rate of 2.2 mL/kg of forage. The application rate for all strains was 1.1×10^5 CFU/g forage. Propionic acid (88%) was applied at a rate of 4.4 mL/kg fresh forage.
PVC Silos: PVC silos were filled at a packing density of 0.288 kg DM/silo (100 kg DM/m^3); approximately 0.82-0.95 kg/silo. Silos were air infused for 24 hours on days 28 and 42, and opened after 50-60 days of ensiling.
Aerobic Stability: The method of Honig (Proc. Of the Eurobac. Conf., P. Lingvall and S. Lindgren (ed.) (12-16 Aug. 1986) Swed. Univ. of Agric. Sci. Grass and Forage Report No. 3-1990. Pp. 76-81. Uppsala, Sweden.) was used for measuring aerobic stability (see Table 1). ROT is defined as the time, in hours, for the silage to heat 1.7° C. after exposure to air. Cumm_DD is the integral value of the area between the time ROT is attained and the end of the experiment. Aerobic dry matter loss (% dry matter) was determined relating the increase in temperature and the time to energy losses occurring in the silage.

CCC(=O)O [Propionic Acid, Propionic acid]
Aerobic deterioration compared with control grass silages: significantly less aerobic deterioration

Reference: patent publication US20080138462A1, “Lactobacillus buchneri strain LN5665 and its use to improve aerobic stability of silage” (Pioneer Hi-Bred International, Inc., priority 2006, published 2008)
